From patent publication US20020111340A1, “Aminoalkoxybiphenylcarboxamides as histamine-3 receptor ligands and their therapeutic applications” (priority 2000, published 2002)

biological target: T1, histamine-3 receptor (Rattus norvegicus, UniProt Q9QYN8); experiment: Histamine-3 receptor binding, displacement of (3H)-N-α-methylhistamine from rat cortical membranes; details: male Sprague-Dawley rat brain cortical membranes; (3H)-N-α-methylhistamine ~0.6 nM; 30 minutes at 25° C.; Cheng-Prusoff
T1 construct: Rat cortical membranes (12 mg wet weight/tube) were incubated with; from tissue; host or cells: male Sprague-Dawley rat brain cortex membranes
T1 sequence (Q9QYN8 whole entry): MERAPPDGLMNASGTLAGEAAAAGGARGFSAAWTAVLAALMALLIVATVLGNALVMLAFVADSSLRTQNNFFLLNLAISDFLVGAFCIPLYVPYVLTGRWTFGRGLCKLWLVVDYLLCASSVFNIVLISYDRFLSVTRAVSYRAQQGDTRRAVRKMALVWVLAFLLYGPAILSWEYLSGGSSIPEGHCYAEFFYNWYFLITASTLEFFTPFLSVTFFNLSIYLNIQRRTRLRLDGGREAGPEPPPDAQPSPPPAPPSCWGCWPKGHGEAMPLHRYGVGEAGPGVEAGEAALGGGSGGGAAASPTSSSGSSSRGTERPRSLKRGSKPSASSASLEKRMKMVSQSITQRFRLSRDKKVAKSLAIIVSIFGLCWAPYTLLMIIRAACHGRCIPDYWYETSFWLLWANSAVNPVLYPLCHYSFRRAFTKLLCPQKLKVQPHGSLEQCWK

| SMILES | Ki [nM] |
| --- | --- |
| CC(C)NC(=O)c1ccc(-c2ccc(OCCCN3[C@H](C)CC[C@H]3C)cc2)cc1 [Example 1, 4′-{3-[(2R,5R)-2,5-dimethylpyrrolidinyl]propoxy}-N-isopropyl[1,1′-biphenyl]-4-carboxamide] | 2.84 |
| CC1CCCN1C(=O)c1ccc(-c2ccc(OCCCN3[C@H](C)CC[C@H]3C)cc2)cc1 (stereo partly drawn) [Example 3, (2R,5R)-2,5-dimethyl-1-[3-({4′-[(2-methyl-1-pyrrolidinyl)carbonyl][1,1′-biphenyl]-4-yl}oxy)propyl]pyrrolidine] | 1 |
| CC(C)NCCCOc1ccc(-c2ccc(C(=O)N3[C@H](C)CC[C@H]3C)cc2)cc1 [Example 4, 3-[(4′-{[(2R,5R)-2,5-dimethylpyrrolidinyl]carbonyl}[1,1′-biphenyl]-4-yl)oxy]-N-isopropyl-1-propanamine] | 507 |
| CCN(CC)CCCOc1ccc(-c2ccc(C(=O)N3[C@H](C)CC[C@H]3C)cc2)cc1 [Example 5, 3-[(4′-{[(2R,5R)-2,5-dimethylpyrrolidinyl]carbonyl}[1,1′-biphenyl]-4-yl)oxy]-N,N-diethyl-1-propanamine] | 13.8 |
| CC1CCN(CCCOc2ccc(-c3ccc(C(=O)N4[C@H](C)CC[C@H]4C)cc3)cc2)CC1 [Example 7, 1-{3-[(4′-{[(2R,5R)-2,5-dimethylpyrrolidinyl]carbonyl}[1,1′-biphenyl]-4-yl)oxy]propyl}-4-methylpiperidine] | 3.66 |
| C[C@@H]1CC[C@@H](C)N1C(=O)c1ccc(-c2ccc(OCCCN3CCOCC3)cc2)cc1 [Example 8, 4-{3-[(4′-{[(2R,5R)-2,5-dimethylpyrrolidinyl]carbonyl}[1,1′-biphenyl]-4-yl)oxy]propyl}morpholine] | 114 |
| CC1CCN(C(=O)c2ccc(-c3ccc(OCCCN4[C@H](C)CC[C@H]4C)cc3)cc2)CC1 [Example 9, 1-[(4′-{3-[(2R,5R)-2,5-dimethylpyrrolidinyl]propoxy}[1,1′-biphenyl]-4-yl)carbonyl]-4-methylpiperidine] | 2.63 |

Next, values leading:

| Ki [nM] | SMILES |
| --- | --- |
| 363 | C[C@H](c1ccccc1)N(C)CCCOc1ccc(-c2ccc(C(=O)N3CCCC3)cc2)cc1 [Example 11, N-methyl-N-[(1R)-1-phenylethyl]-N-(3-{[4′-(1-pyrrolidinylcarbonyl)[1,1′-biphenyl]-4-yl]oxy}propyl)amine] |
| 384 | CN(CCCOc1ccc(-c2ccc(C(=O)N3CCCC3)cc2)cc1)[C@@H]1CCN(Cc2ccccc2)C1 [Example 12, N-[(3R)-1-benzylpyrrolidinyl]-N-methyl-N-(3-{[4′-(1-pyrrolidinylcarbonyl)[1,1′-biphenyl]-4-yl]oxy}propyl)amine] |
| 80 | O=C(c1ccc(-c2ccc(OCCCN3CCC[C@@H]3CO)cc2)cc1)N1CCCC1 [Example 13, [(2R)-1-(3-{[4′-(1-pyrrolidinylcarbonyl)[1,1′-biphenyl]-4-yl]oxy}propyl)pyrrolidinyl]methanol] |
| 6.07 | O=C(c1ccc(-c2ccc(OCCCN3CCC[C@H]3CO)cc2)cc1)N1CCCC1 [Example 14, [(2S)-1-(3-{[4′-(1-pyrrolidinylcarbonyl)[1,1′-biphenyl]-4-yl]oxy}propyl)pyrrolidinyl]methanol] |
| 7.18 | C[C@@H]1CCC[C@H](C)N1CCCOc1ccc(-c2ccc(C(=O)N3CCCC3)cc2)cc1 [Example 15, (2R,6S)-2,6-dimethyl-1-(3-{[4′-(1-pyrrolidinylcarbonyl)[1,1′-biphenyl]-4-yl]oxy}propyl)piperidine] |
| 71.5 | O=C(c1ccc(-c2ccc(OCCCN3CCC[C@@H](O)C3)cc2)cc1)N1CCCC1 [Example 16, (3R)-1-(3-{[4′-(1-pyrrolidinylcarbonyl)[1,1′-biphenyl]-4-yl]oxy}propyl)-3-piperidinol] |
